Assay results as given in patent US5622944A, “Testosterone prodrugs for improved drug delivery” (Affymax Technologies N.V., priority 1995, dated 1997).
Structures can show the parent of a compound that is named as a salt. Where two headings read alike, the source gives them in different places.

Tests used:
[1] = in vitro; assay type: cell-based, human; settings: human, dermal fibroblasts, MTT
Procedure: (§1) As discussed above, the chemical modifier, when present in the subject in its free or released form, and in appropriately administered amounts, should preferably be non-toxic. Additionally, any further in vivo degradation products of the chemical modifier should be non-toxic, as well. Table 2 provides in vitro relative cytotoxicity data for a number of testosterone/chemical modifier complexes, prepared in accordance with the invention. The cytotoxicity assessment was carried out by examining the viability of human dermal fibroblasts in the presence of a number of testosterone/chemical modifier complexes in accordance with the present invention. Details of the experimental protocol are summarized in Example 27.
(§2) The viability of human dermal fibroblasts in the presence of the 17-hydroxy sterol/chemical modifier compounds was assayed using MTT (3-[4,5-dimethylthiazol-2-yl]-2,5-diphenyltetrazolium bromide) reduction to formazan by mitochondrial enzymes as an indicator of cytotoxicity (Swisher, et al.). Confluent fibroblast cells were incubated for 2 or 16 hours in the presence of increasing concentrations of drug complex. At the end of the incubation period, medium was replaced for 4 hours by medium containing the tetrazolium salt, MTT. Metabolism of MTT to a blue formazan was quantitated by spectrophotometry at 540 nm.

[2] = in vitro; assay type: in vitro ADME; settings: human, serum, 37° C.
Procedure: The hydrolytic activity of the sterol prodrug may be evaluated by studies of the chemical or enzymatic conversion of the prodrug to the unmodified parent compound, as described in Example 26.
Generally, the sterol/chemical modifier complex is dissolved in a minimum amount of a suitable solvent, such as ethanol, and the resulting solution is added to a sample of human serum. Following incubation, aliquots are then removed at various time points and analyzed to determine the extent of hydrolysis. Table I herein lists the representative serum half-lives of a number of testosterone prodrugs according to the present invention.
The rates of conversion are readily determined, for example by spectrophotometric methods or by gas-liquid or high performance liquid chromatography. Half-lives and other kinetic parameters may then be calculated using standard techniques.
Determination of Testosterone Prodrug Hydrolysis in Serum
Stock solutions (6 mM) of the testosterone prodrugs were prepared in ethanol (dissolution was accomplished by vortexing, sonication, or warming at 37° C., as needed). If required for dissolution, one drop of a co-solvent such as dimethylsulfoxide, dimethylformamide or methanol was added. (Acetonitrile is undesirable because it deactivates the serum enzymes).
HPLC separation methods were established for each study by dilution of the above stock solutions (6 μl) in acetonitrile (1 ml) to form 36 μM solutions. Samples (10 μl) were injected onto a Nucleosil 5C8 column (250×4 mm ID) fitted with an additional guard column (11×4 mm ID) and eluted with a mobile phase of approximately 65% HPLC grade water and 35% trifluoroacetic acid in acetonitrile (0.1% TFA in acetonitrile). Exact proportions of the mobile phase eluents were adjusted in each case to give optimum separation and run times.
Freshly defrosted human serum (3 ml, Sigma) was warmed at 37° C. for five minutes and then the testosterone prodrug stock solution (60 μl) was added with vortexing. […] The aliquots were added to 800 μl of 2% zinc sulfate solution in a 1.5 ml disposable microcentrifuge tube, vortexed immediately and centrifuged at 14,000 RPM for 3 minutes. The supernatants (10 μl) were injected onto the HPLC and peak areas used to determine the percent of parent drug formed or percent of prodrug remaining. Serum blanks were prepared similarly by addition of serum to the zinc sulfate solution, followed by centrifugation. Initial (time=0) samples were prepared by adding serum to the zinc sulfate solution, followed by addition of the complex and separation by centrifugation. The time=0 samples, as well as the original stock solutions, were also used to assess the stability of the complex in the absence of enzyme. Half-lives were determined using the following equation : […]
and plotting time (x ordinate) versus the natural logarithm of percent remaining prodrug (y ordinate) to obtain the slope (m) and the y intercept (b).

[3] = assay type: in vitro ADME, mouse; settings: for Flux, active electrotransport (ET): murine skin, active cells (ETm), 10 mM donor, 100 uA/cm^2, 6 h, 32° C.
Procedure: In vitro electrotransport of testosterone/chemical modifier complexes across hairless mouse skin was evaluated as described in Example 28. The experiments were conducted using modified Valia-Chien cells having 1.0 ml donor and 2.5 ml receptor cells. Anodic transport was carried out using a silver wire-based salt bridge in the donor compartment and a silver chloride cathode in the receptor. Cathodic transport was effected by reversing the electrode configuration. The cells were connected in series and a constant current and temperature were supplied to each cell.
After a predetermined period of time (6 h), aliquots were removed from the receiver phase for immediate analysis by HPLC to determine cumulative flux.
The electrotransport of testosterone/chemical modifier complexes was achieved using modified Valia-Chien cells (1.0 ml donor and 2.5 ml receptor cells). Full thickness, hairless mouse skin (Charles River Labs, Wilmington, Mass.) was soaked for one hour in phosphate buffered saline (PBS, pH=7.4) before placing between each compartment (dermal side of skin facing toward receptor). One passive (P1:data) and two or more (ETm :data) active cells were used to screen each compound.
A 10 mM (1 ml) aqueous solution of testosterone drug/prodrug was placed in the donor (unstirred) compartment and the receptor (stirred) was filled with 2.5 ml of PBS. In order to check for egress due to e.g. damaged skin, a zero hour sample of receptor ([…]) was taken one half hour after the drug solution was placed in the donor compartment. Replacement fluid of equal sample volume was added to the receptor compartment immediately after samples were taken.
Anodic electrotransport was achieved using a silver wire (immersed in a polyvinylalcohol-based salt bridge to minimize junction potential) in the donor compartment and a AgCl cathode in the receptor. […] The electrotransport cells were connected in series and constant current (100 uA/cm^2, […] for a skin area of 0.64 cm^2) and temperature (32° C.) were supplied to each cell. After six hours of active/passive transport, aliquots (200 ul) of the receptor were sampled and immediately analyzed by HPLC.
A standard plot of peak area and concentration for each compound was constructed using HPLC. The peak areas of the samples were determined and the concentrations calculated using the standard data. Cumulative flux was calculated using Quickbasic and reported in nmol/cm^2 /hr.

[4] = Degradation (%/d)
[5] = Water solubility (H2O sol)
[6] = Steady state flux across human skin (iontophoretic); assay type: in vitro ADME; settings: iontophoresis (Table 4)
Procedure: Another useful factor for in vitro assessment of skin permeability of a target drug or drug complex is steady state flux. Typically, when performing a kinetic analysis of the skin-penetrating ability of a target compound through a membrane, such as skin, such an analysis includes an assessment of the lag time and the steady state flux or permeation rate. The ideal membrane for such determinations is human skin.
Steady state flux across human skin was determined for three distinct testosterone/chemical modifier complexes, as shown in FIG. 5 and in Table 4. In FIG. 5, iontophoretic flux rates over time are plotted for testosterone-17β-stachydrine ester, chloride salt [2.9], (closed circles), testosterone-17β-(L-carnitine ethyl ester) carbonate, iodide salt [1.7] (solid squares), and testosterone-17β-choline carbonate, bromide salt [1.4] (open circles). […] Steady state flux values in FIG. 5 are expressed as testosterone equivalents in units of μg/cm^2 h.
Iontophoretically-induced steady state flux across human skin was determined for three distinct testosterone/chemical modifier complexes, testosterone-17β-stachydrine ester, chloride salt [2.9], testosterone-17β-(L-carnitine ethyl ester) carbonate, iodide salt [1.7], and testosterone-17β-choline carbonate, bromide salt [1.4]. The in vitro skin flux experiments were carried out in a similar fashion to those described above, with the exception that human skin was used as the membrane.
Steady state flux values provide an indication of the total amount of drug (or drug complex) that can penetrate the skin, under a given set of experimental conditions.

[7] = test system: human dermal fibroblasts; experiment: in vitro; assay type: cell-based; settings: MTT
Procedure: as §1, §2

Row | Compound | CC50 at 2 h ([1]; IC50 2 h (cytotoxicity), 2 h incubation) | CC50 at 16 h ([1]; IC50 16 h (cytotoxicity), 16 h incubation) | half-life ([2]; sample of 82% purity) | Flux, active electrotransport (ET) [3] | Degradation [4] | H2O sol [5] | Steady State Flux [6] | CC50 ([7]; read-out: IC50 2 h (cytotoxicity), 2 h incubation, 120 min) | CC50 ([7]; read-out: IC50 16 h (cytotoxicity), 16 h incubation, 960 min) | half-life ([2]; HPLC) | Enhancement in in vitro electrotransport skin flux compared to testosterone ([3]; hairless mouse skin, vs unmodified testosterone, 'nearly 10-fold enhancement or greater')
1 | CCOC(=O)C[C@H](C[N+](C)(C)C)OC(=O)O[C@H]1CC[C@H]2[C@@H]3CCC4=CC(=O)CC[C@]4(C)[C@H]3CC[C@]12C [Code 1.7, testosterone-17β-(L-carnitine ethyl ester) carbonate, iodide salt] | 913 µM | 849 µM | 4.2 h | 3.6 ± 1.3 nmol/cm^2 /hr | 0 %/d | 5.3 mg/mL | 75 ± 14 nmole/cm^2 /h |  |  |  | 
2 | CCOC(=O)C[C@H](C[N+](C)(C)C)OC(=O)O[C@H]1CC[C@H]2[C@@H]3CCC4=CC(=O)CC[C@]4(C)[C@H]3CC[C@]12C [Code 4.1, testosterone-17β-(L-carnitine ethyl ester) carbonate, bromide salt] |  |  |  | 15.7 ± 5.3 nmol/cm^2 /hr | 1 %/d | 21.0 mg/mL |  | 1400 µM | 560 µM | 4 h | ≥ 10 fold
